According to paper PMC8402075, “Synthesis and Antiplasmodial Activity of Bisindolylcyclobutenediones” (Molecules, 2021):
Entries after “also recorded” stand apart in the source; their conditions may differ. Where two headings read alike, the source gives them in different places.

Legend:
[1] = tested on: P. falciparum (NF54-luc strain) erythrocytic stages; assay: Luciferase-based viability screening for antiplasmodial activity; format: cell-based, Plasmodium falciparum; conditions: Plasmodium falciparum; for inhibition at 3 µM: read-out: Inhibition at 3 µM [%]
Procedure: All synthesized new bisindolylcyclobutenediones 2a–2ar and the related bisindolylmaleimide 8 [37] were screened for inhibition of erythrocytic stages of Plasmodium falciparum employing a bioluminescence-based viability assay on transgenic parasites that constitutively express luciferase (PfNF54-luc). Initially, the compounds were evaluated in single-dose test runs (3 µM). If >20% viability inhibition was observed, dose-response curves were generated and IC50 values were calculated (Table 1). […] The bisindolylmaleimide 8 [37] inhibited the parasites in a single-digit micromolar concentration, similar to many of the bisindolylcyclobutenediones in the study. Because the bisindolylcyclobutenediones 2 display a higher degree of structural novelty, only this compound class was further pursued for its antiplasmodial activity. […] These structural features were considered unfavorable for orientations as illustrated in Figure 2 with 2a and Pfmap-2, PfPK5, PfCDPK2, Pflammer, and PfPK7, respectively. However, a structure generated for 2a in PfGSK-3 in which the indole units are oriented perpendicular to each other (Figure 2a) was considered compatible with the indicated substitution pattern. Consequently, the potent antiplasmodial derivatives 2k, 2ad, and 2ae were tested in a kinase Glo assay for inhibition of recombinant PfGSK-3. […] For the compounds with particularly potent antiplasmodial activity, cytotoxicity was also determined using the human cell line THP-1 to assess selectivity with respect to parasite cells (Table 2).
Screening for the antiplasmodial activity of test compounds was performed by luciferase-based viability assays as reported previously. In brief, asexual erythrocytic stages of transgenic NF54-luc P. falciparum were cultured as described elsewhere. Parasite cultures with parasitaemia of 0.5–1% were incubated in the presence of 3 µM test compounds for 48 h. After the subsequent addition of Bright-Glo substrate solution (Promega, Madison, WI), the resulting luminescence was measured. Untreated cultures (0.01% DMSO) were used as negative controls. Experiments were performed in triplicate and were repeated as a whole at least twice. Blasticidin (Sigma-Aldrich, St. Louis, MO, USA) was included as a positive control.

human THP-1 cell line = assay: Cytotoxicity assay on human THP-1 cell line (Alamar Blue); format: cell-based; conditions: for Selectivity Index (SI) = IC50, THP-1/IC50, Pf: THP-1 versus P. falciparum NF54-luc; for IC50: human THP-1 cell line, 48 h, Alamar Blue
Procedure: The cytotoxicity of selected antiplasmodial bisindolylcyclobutenediones was determined against THP-1 cells following a protocol described previously. In brief, THP-1 cells were incubated with test compounds in serial compound dilutions in the presence of 0.01% DMSO at 37 °C. After 48 h, Alamar Blue was added, and after 4 h the fluorescence was read (λex = 544 nm, λem = 590 nm) using a microplate reader. THP-1 cells in wells containing medium plus 0.01% DMSO served as negative controls. Experiments were performed in triplicate and were repeated as a whole at least twice.

recombinant PfGSK-3 = biological target: T1, recombinant PfGSK-3 (Plasmodium falciparum, UniProt O77344); assay: PfGSK-3 inhibition assay (KinaseGlo Plus); format: biochemical; conditions: tested up to a concentration of 10 µM, kinase Glo assay
T1 construct: 6xHis (N, cleaved yes); GST (N, cleaved yes); made in house; host or cells: E. coli BL21 (DE3)-RIL
Procedure: PfGSK-3 was produced as published before. In brief, PfGSK-3 was cloned into pOPIN J expression vector [57] which was transformed into E. coli BL21 (DE3)-RIL. Expression of recombinant 6xHis-GST-PfGSK-3 was induced by incubation with isopropyl β-D-1-thiogalactopyranoside (IPTG). The recombinant protein was purified by affinity chromatography using glutathione resin and elution by digestion with human rhinovirus 3C protease.
The PfGSK-3 inhibition assay was carried out using the commercial KinaseGlo Plus assay (KinaseGlo Plus, Promega) as described before. In brief, the kinase and a corresponding substrate (GS-1 substrate, Promega) in the presence of ATP were used to perform substrate phosphorylation. Subsequently, luminescence is generated utilizing luciferase which is a component of the KinaseGlo Reagent. The intensity of the luminescence signal corresponds to the amount of remaining ATP in the reaction mixture. For the investigation, potential kinase inhibitors were dissolved in DMSO and were added directly to the kinase reaction. The final DMSO concentration in the kinase reaction was at most 1%. As the negative control, 1% DMSO without test compound was measured. A control reaction without kinase was measured simultaneously. The difference between kinase reaction and control reaction corresponds to the kinase activity.

[2] = NF54, 48 h, read-out: IC50 [µM], concentration for 50% inhibition of P. falciparum (NF54-luc strain) erythrocytic stages

T1 sequence (O77344 entry or part of it): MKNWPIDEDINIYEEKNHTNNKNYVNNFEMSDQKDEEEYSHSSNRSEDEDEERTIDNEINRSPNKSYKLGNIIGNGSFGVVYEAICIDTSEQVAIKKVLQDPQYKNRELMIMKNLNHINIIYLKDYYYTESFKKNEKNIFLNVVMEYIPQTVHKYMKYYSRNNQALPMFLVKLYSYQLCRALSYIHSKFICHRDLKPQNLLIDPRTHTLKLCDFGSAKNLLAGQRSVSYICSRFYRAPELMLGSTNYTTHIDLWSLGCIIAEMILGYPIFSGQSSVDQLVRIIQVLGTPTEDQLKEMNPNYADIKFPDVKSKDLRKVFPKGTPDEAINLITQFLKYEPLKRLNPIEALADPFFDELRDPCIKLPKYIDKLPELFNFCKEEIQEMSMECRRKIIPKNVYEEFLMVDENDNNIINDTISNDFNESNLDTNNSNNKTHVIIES

| Compound | IC50 [1, 2] [µM] | inhibition at 3 µM ([1]; NF54, 48 h) [%] | IC50 ([1]; NF54, read-out: IC50, Pf [µM]) [µM] | Selectivity Index (SI) = IC50, THP-1/IC50, Pf (human THP-1 cell line) | IC50 (human THP-1 cell line) [nM] | Inhibition of recombinant PfGSK-3 (recombinant PfGSK-3) |
| --- | --- | --- | --- | --- | --- | --- |
| COc1ccc2[nH]cc(-c3c(-c4c[nH]c5ccc(Br)cc45)c(=O)c3=O)c2c1 [2ad, 3-(5-Bromo-1H-indol-3-yl)-4-(5-methoxy-1H-indol-3-yl)cyclobut-3-ene-1,2-dione] | 0.47 | 98.8 ± 0.7 | 0.47 | 30 | 14100 | failed to show kinase inhibitory activity; also recorded: inactive; also recorded: did not inhibit PfGSK-3 |
| COc1ccc2[nH]cc(-c3c(-c4c[nH]c5ccc(I)cc45)c(=O)c3=O)c2c1 [2ae, 3-(5-Iodo-1H-indol-3-yl)-4-(5-methoxy-1H-indol-3-yl)cyclobut-3-en-1,2-dione] | 0.64 | – | 0.64 | 23 | 14500 | failed to show kinase inhibitory activity; also recorded: inactive; also recorded: did not inhibit PfGSK-3 |
| O=c1c(-c2c[nH]c3ccccc23)c(-c2c(-c3ccccc3)[nH]c3ccccc23)c1=O [2h, 3-(1H-Indol-3-yl)-4-(2-phenyl-1H-indol-3-yl)cyclobut-3-ene-1,2-dione] | 6.38 | – | 6.38 | 1.0 | 6370 | – |
| CN(C)CCCn1cc(-c2c(-c3c[nH]c4ccccc34)c(=O)c2=O)c2ccccc21 [2k, 3-{1-[3-(Dimethylamino)propyl]-1H-indol-3-yl}-4-(1H-indol-3-yl)cyclobut-3-ene-1,2-dione] | 0.376 | 98.1 ± 1.8 | 0.38 | 34 | 12800 | failed to show kinase inhibitory activity; also recorded: inactive; also recorded: did not inhibit PfGSK-3 |
| Cn1cc(-c2c(-c3c[nH]c4ccccc34)c(=O)c2=O)c2ccccc21 [2q, 3-(1H-Indol-3-yl)-4-(1-methyl-1H-indol-3-yl)cyclobut-3-ene-1,2-dione] | 2.97 | – | 2.97 | 4.7 | 14000 | – |
| O=c1c(-c2c[nH]c3ccccc23)c(-c2c[nH]c3ccc(I)cc23)c1=O [2r, 3-(1H-Indol-3-yl)-4-(5-iodo-1H-indol-3-yl)cyclobut-3-ene-1,2-dione] | 0.915 | – | 0.92 | 7.9 | 7250 | – |
| Cn1cc(-c2c(-c3c(-c4ccccc4)[nH]c4ccccc34)c(=O)c2=O)c2ccccc21 [2u, 3-(1-Methyl-1H-indol-3-yl)-4-(2-phenyl-1H-indol-3-yl)cyclobut-3-ene-1,2-dione] | 1.72 | – | 1.72 | 1.2 | 2100 | – |
| Cc1[nH]c2ccccc2c1-c1c(-c2cn(C)c3ccccc23)c(=O)c1=O [2y, 3-(1-Methyl-1H-indol-3-yl)-4-(2-methyl-1H-indol-3-yl)cyclobut-3-ene-1,2-dione] | 2.67 | – | 2.67 | 3.1 | 8400 | – |
